What was measured:
CYP3A4/5 = conditions: hepatocytes
CYP1A2 [1] = target: T1, CYP1A2 (Homo sapiens, UniProt P05177); conditions: azacitidine at 70 μM or lower concentrations
T1 sequence (P05177 1-516): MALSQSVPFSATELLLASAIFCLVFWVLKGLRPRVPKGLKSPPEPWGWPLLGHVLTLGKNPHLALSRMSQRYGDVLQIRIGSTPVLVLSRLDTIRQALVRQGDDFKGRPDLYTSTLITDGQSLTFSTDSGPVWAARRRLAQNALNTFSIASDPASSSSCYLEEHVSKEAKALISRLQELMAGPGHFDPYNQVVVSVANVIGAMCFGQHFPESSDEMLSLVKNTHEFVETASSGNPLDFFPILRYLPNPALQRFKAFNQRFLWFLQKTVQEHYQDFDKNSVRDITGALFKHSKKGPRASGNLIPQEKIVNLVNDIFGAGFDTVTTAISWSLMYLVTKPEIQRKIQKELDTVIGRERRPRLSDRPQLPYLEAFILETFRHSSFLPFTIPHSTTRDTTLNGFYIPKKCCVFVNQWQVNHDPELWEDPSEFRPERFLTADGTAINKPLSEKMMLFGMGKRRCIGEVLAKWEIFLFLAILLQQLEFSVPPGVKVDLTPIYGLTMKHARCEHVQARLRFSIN

CYP1A2 [2] = tested on: CYP1A2
CYP2E1 = CYP2E1 (Homo sapiens, UniProt P05181); assay: CYP2E1 inhibition in human liver microsomes; type: in vitro ADME
Sequence of CYP2E1 (P05181 whole entry): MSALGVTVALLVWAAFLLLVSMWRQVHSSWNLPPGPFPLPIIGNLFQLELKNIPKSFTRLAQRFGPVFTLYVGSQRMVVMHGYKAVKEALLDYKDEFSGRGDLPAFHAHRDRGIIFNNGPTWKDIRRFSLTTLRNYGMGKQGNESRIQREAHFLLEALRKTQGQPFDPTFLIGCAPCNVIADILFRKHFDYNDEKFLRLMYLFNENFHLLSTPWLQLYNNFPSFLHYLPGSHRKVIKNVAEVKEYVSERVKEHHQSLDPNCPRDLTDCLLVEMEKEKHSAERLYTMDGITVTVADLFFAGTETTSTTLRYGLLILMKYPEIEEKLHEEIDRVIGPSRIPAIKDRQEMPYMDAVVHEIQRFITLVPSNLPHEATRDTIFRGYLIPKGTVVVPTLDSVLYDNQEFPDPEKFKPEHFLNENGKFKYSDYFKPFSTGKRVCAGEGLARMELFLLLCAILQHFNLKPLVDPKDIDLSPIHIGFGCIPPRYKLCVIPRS

## Nc1ncn([C@@H]2O[C@H](CO)[C@@H](O)[C@H]2O)c(=O)n1 [Azacitidine]
CYP3A4/5
  Induction of CYP3A4/5 activity: did not induce
CYP3A4/5; human
  Decrease of CYP3A4/5-catalyzed testosterone 6β-hydroxylation: 78%
CYP1A2 [1]
  Inhibition of CYP1A2: no inhibition
CYP1A2 [2]; azacitidine 100 μM, not statistically significant
  Decrease of CYP1A2-mediated 7-ethoxyresorufin O-dealkylation: 29%
CYP1A2 [2]; clinically relevant concentrations, once daily for three consecutive days
  Induction of CYP1A2 activity: did not induce
CYP2E1; azacitidine at 70 μM or lower concentrations
  Inhibition of CYP2E1: no inhibition
CYP2E1; azacitidine at 100 μM, chlorzoxazone 40 μM, HLM 0.8 mg/mL
  Percent inhibition: < 30%
